In brackets after ≈: the same amount, converted by molar mass. Activity calls are given as the source filed them. The rule behind the calls is not given here.
Columns and labels:
Staphylococcus aureus [1] = assay: Antibacterial activity against Staphylococcus aureus ATCC 4330 assessed as inhibition of bacterial growth measured after 16 to 24 hrs by CLSI based broth dilution method; type: functional; conditions: time 16-24 hrs
Clostridioides difficile [2] = assay: Antibacterial activity against Clostridioides difficile ATCC 43255 assessed as inhibition of bacterial growth measured after 24 hrs by CLSI based broth dilution method; type: functional
[3] = Aqueous kinetic solubility of the compound at pH 7.4 incubated for 2 hrs by UPLC-MS analysis; type: physicochemical; conditions: read-out: Kinetic_solubility
[4] = Effective permeability of the compound at pH 7.4 at 25 uM incubated for 5 hrs by skin PAMPA analysis; type: ADME; conditions: pH 7.4, 5 h
[5] = Effective permeability of the compound at pH 5.5 at 25 uM incubated for 5 hrs by skin PAMPA analysis; type: ADME; conditions: pH 5.5, 5 h
Staphylococcus aureus [6] = assay: Antibacterial activity against methicillin-resistant Staphylococcus aureus assessed as inhibition of bacterial growth measured after 16 to 24 hrs by CLSI based broth dilution method; type: functional; conditions: time 16-24 hrs
Staphylococcus aureus [7] = assay: Antibacterial activity against clinical isolate methicillin-resistant Staphylococcus aureus assessed as log reduction in CFU/ml at 16 times of MIC measured after 24 hrs by time killing analysis; type: functional
Staphylococcus aureus [8] = assay: In vivo antibacterial activity against methicillin-resistant Staphylococcus aureus KCCM 40511 ATCC 33593 infected in soft-skin tissue BALB/c mouse infection model assessed as reduction in total number of bacteria in wound area treated as ointment administered twice at 6 and 12 hrs and measured after 24 hrs relative to mupirocin; type: functional
Enterococcus faecalis [9] = assay: Antibacterial activity against Enterococcus faecalis ATCC 29212 assessed as inhibition of bacterial growth measured after 24 hrs by CLSI based broth dilution method; type: functional
Enterococcus faecalis [10] = assay: Antibacterial activity against Clinical isolate Enterococcus faecalis assessed as inhibition of bacterial growth measured after 24 hrs by CLSI based broth dilution method; type: functional
Enterococcus faecium = assay: Antibacterial activity against Enterococcus faecium ATCC 19434 assessed as inhibition of bacterial growth measured after 24 hrs by CLSI based broth dilution method; type: functional
Clostridioides difficile [11] = assay: Antibacterial activity against Clostridioides difficile ribotype 027 infected in colitis induced C57BL/6J mouse assessed as survival rate at 30 mg/kg, po qd pretreated with clindamycin followed by […] infection and compound addition measured on day 5; type: functional; conditions: ribotype 027, 120 h, time 5 day
Clostridioides difficile [12] = assay: Antibacterial activity against Clostridioides difficile ribotype 027 infected in colitis induced C57BL/6J mouse assessed as increase in survival rate without recurrence at 30 mg/kg, po qd pretreated with clindamycin followed by […] infection and compound addition measured on day 5; type: functional; conditions: time 5.0 day
[13] = (§1) Toxicity in colitis-induced C57BL/6J mouse infected with Clostridioides difficile ribotype 027 assessed as increase in Enterococcus proportion in gut at 30 mg/kg, po qd pretreated with clindamycin followed by infected with […] and measured on day 6 post treatment by RNA sequencing analysis (reference value: 0%); type: organism-based; conditions: in vivo, 144 h, time 6 day
[14] = as §1, with “Klebsiella” for “Enterococcus”; type: organism-based; conditions: in vivo, 144 h, time 6 day
[15] = as §1, with “Escherichia” for “Enterococcus”; type: organism-based; conditions: in vivo, 144 h, time 6 day
[16] = Toxicity in colitis-induced C57BL/6J mouse infected with Clostridioides difficile ribotype 027 assessed as effect on gut micro-biome at 30 mg/kg, po qd pretreated with clindamycin followed by infected with […] and measured on day 6 post treatment by RNA sequencing analysis; type: organism-based; conditions: in vivo, 144 h, time 6 day
[17] = Toxicity in colitis-induced C57BL/6J mouse infected with Clostridioides difficile ribotype 027 assessed as effect on Firmicutes proportion in gut at 30 mg/kg, po qd pretreated with clindamycin followed by infected with […] and measured on day 6 post treatment by RNA sequencing analysis; type: organism-based; conditions: in vivo, 144 h, time 6 day
[18] = Toxicity in colitis-induced C57BL/6J mouse infected with Clostridioides difficile ribotype 027 assessed as effect on Acinetobacter proportion in gut at 30 mg/kg, po qd pretreated with clindamycin followed by infected with […] and measured on day 6 post treatment by RNA sequencing analysis; type: organism-based; conditions: in vivo, 144 h, time 6 day
[19] = Genotoxicity in Salmonella typhimurium TA98 incubated for 90 min by Ames test; type: toxicity; conditions: salmonella enterica subsp. enterica serovar typhimurium, 1.5 h
[20] = Genotoxicity in Salmonella typhimurium TA100 incubated for 90 min by Ames test; type: toxicity; conditions: salmonella enterica subsp. enterica serovar typhimurium, 1.5 h
[21] = Genotoxicity in Salmonella typhimurium TA98 incubated for 90 min in presence of S9 fraction by Ames test; type: toxicity, subcellular; conditions: salmonella enterica subsp. enterica serovar typhimurium, s9, 1.5 h
[22] = Genotoxicity in Salmonella typhimurium TA100 incubated for 90 min in presence of S9 fraction by Ames test; type: toxicity, subcellular; conditions: salmonella enterica subsp. enterica serovar typhimurium, s9, 1.5 h
[23] = target: Voltage-gated inwardly rectifying potassium channel KCNH2 (Homo sapiens, UniProt Q12809); assay: Inhibition of hERG expressed in HEK293 cells at 10 uM incubated for 5 mins by whole cell patch clamp assay; type: toxicity, cell-based; conditions: hek293, 5 min
[24] = as §1, with “in Klebsiella” for “in Enterococcus”, “day 20” for “day 6”; type: organism-based; conditions: in vivo, 480 h, time 20 day
[25] = as §1, with “day 20” for “day 6”; type: organism-based; conditions: in vivo, 480 h, time 20 day
[26] = as §1, with “in Escherichia” for “in Enterococcus”, “day 20” for “day 6”; type: organism-based; conditions: in vivo, 480 h, time 20 day
Clostridioides difficile [27] = assay: Antibacterial activity against Clostridioides difficile RT001/ST3/A+B+ assessed as inhibition of bacterial growth measured after 24 hrs by CLSI based broth dilution method; type: functional
Clostridioides difficile [28] = assay: Antibacterial activity against Clostridioides difficile RT002/ST8/A+B+ assessed as inhibition of bacterial growth measured after 24 hrs by CLSI based broth dilution method; type: functional
Clostridioides difficile [29] = assay: Antibacterial activity against Clostridioides difficile RT012/ST54/A+B+ assessed as inhibition of bacterial growth measured after 24 hrs by CLSI based broth dilution method; type: functional
Clostridioides difficile [30] = assay: Antibacterial activity against Clostridioides difficile RT014/ST14/A+B+ assessed as inhibition of bacterial growth measured after 24 hrs by CLSI based broth dilution method; type: functional
Clostridioides difficile [31] = assay: Antibacterial activity against Clostridioides difficile RT015/ST35/A+B+ assessed as inhibition of bacterial growth measured after 24 hrs by CLSI based broth dilution method; type: functional
Clostridioides difficile [32] = assay: Antibacterial activity against Clostridioides difficile RT018/ST17/A+B+ assessed as inhibition of bacterial growth measured after 24 hrs by CLSI based broth dilution method; type: functional
Clostridioides difficile [33] = assay: Antibacterial activity against Clostridioides difficile RT293/ST129/A+B+ assessed as inhibition of bacterial growth measured after 24 hrs by CLSI based broth dilution method; type: functional
Clostridioides difficile [34] = assay: Antibacterial activity against Clostridioides difficile RT027/ST1/A+B+CDT+ assessed as inhibition of bacterial growth measured after 24 hrs by CLSI based broth dilution method; type: functional
Clostridioides difficile [35] = assay: Antibacterial activity against Clostridioides difficile NT/ST67/A+B+CDT+ assessed as inhibition of bacterial growth measured after 24 hrs by CLSI based broth dilution method; type: functional
Clostridioides difficile [36] = assay: Antibacterial activity against Clostridioides difficile RT130/ST5/A+B+CDT+ assessed as inhibition of bacterial growth measured after 24 hrs by CLSI based broth dilution method; type: functional
Clostridioides difficile [37] = assay: Antibacterial activity against Clostridioides difficile NT/ST221/A+B+CDT+ assessed as inhibition of bacterial growth measured after 24 hrs by CLSI based broth dilution method; type: functional
Clostridioides difficile [38] = assay: Antibacterial activity against Clostridioides difficile RT017/ST37/A-B+ assessed as inhibition of bacterial growth measured after 24 hrs by CLSI based broth dilution method; type: functional
Clostridioides difficile [39] = assay: Antibacterial activity against Clostridioides difficile RT078/ST11/A+B+CDT+ assessed as inhibition of bacterial growth measured after 24 hrs by CLSI based broth dilution method; type: functional

Sequence of Voltage-gated inwardly rectifying potassium channel KCNH2 (Q12809 whole entry): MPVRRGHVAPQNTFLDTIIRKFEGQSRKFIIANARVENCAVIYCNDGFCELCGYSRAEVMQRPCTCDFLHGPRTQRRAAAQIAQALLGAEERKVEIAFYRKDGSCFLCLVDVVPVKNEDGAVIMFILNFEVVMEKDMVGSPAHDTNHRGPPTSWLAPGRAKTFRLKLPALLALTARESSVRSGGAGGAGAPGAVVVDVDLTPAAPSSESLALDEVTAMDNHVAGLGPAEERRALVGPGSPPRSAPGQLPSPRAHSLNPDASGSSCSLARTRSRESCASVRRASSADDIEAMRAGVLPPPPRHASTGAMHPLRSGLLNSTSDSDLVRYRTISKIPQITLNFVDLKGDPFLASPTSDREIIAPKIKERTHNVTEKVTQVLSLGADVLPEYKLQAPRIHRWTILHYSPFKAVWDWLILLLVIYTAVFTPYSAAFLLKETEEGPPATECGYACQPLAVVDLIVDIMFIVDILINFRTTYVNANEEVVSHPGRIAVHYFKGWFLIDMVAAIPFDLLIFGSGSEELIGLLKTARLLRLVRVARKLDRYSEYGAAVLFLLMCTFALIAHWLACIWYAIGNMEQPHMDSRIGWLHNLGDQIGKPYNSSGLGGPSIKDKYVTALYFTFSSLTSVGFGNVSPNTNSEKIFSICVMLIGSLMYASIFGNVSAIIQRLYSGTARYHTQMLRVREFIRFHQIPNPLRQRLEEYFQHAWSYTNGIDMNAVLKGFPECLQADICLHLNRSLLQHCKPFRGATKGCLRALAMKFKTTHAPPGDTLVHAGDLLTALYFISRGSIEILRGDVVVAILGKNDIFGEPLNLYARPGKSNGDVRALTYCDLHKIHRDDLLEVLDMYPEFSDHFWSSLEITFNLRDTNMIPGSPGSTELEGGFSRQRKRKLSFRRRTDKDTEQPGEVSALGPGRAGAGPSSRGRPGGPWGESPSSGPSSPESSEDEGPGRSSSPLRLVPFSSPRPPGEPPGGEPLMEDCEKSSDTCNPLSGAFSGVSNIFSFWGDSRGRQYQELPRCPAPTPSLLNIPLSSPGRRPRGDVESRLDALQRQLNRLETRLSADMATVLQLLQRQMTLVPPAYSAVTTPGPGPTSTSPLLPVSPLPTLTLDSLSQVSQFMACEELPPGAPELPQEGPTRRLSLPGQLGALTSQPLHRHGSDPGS

Compound `C/C=C(\NC(=O)c1csc(-c2csc(-c3ccc4c(n3)-c3csc(n3)[C@H]([C@@H](C)O)NC(=O)c3csc(n3)[C@H](C(C)C)NC(=O)c3csc(n3)/C(=C/C)NC(=O)[C@H]([C@@H](C)O)NC(=O)c3csc-4n3)n2)n1)C(=O)NCCN1CCN(C(C)C)CC1` has an MIC (Staphylococcus aureus [1]) of 0.5 µg/mL (≈ 0.403 µM), an MIC (Clostridioides difficile [2]) of 0.5 µg/mL (≈ 0.403 µM) and a solubility kinetic at 2 h [3] of 150 µg/mL (≈ 121 µM). The Peff [4] was “Impermeable”, the Peff [5] was “Impermeable” and the MIC50 (Staphylococcus aureus [6]) was 2 µg/mL (≈ 1.61 µM). For the same compound, the MIC90 (Staphylococcus aureus [6]) was 4 µg/mL (≈ 3.22 µM), the Activity (Staphylococcus aureus [7]) was “>=3 log10CFU/ml” and the “fold change (FC)” value (Staphylococcus aureus [8]) was 1000.
`C/C=C(\NC(=O)c1csc(-c2csc(-c3ccc4c(n3)-c3csc(n3)[C@H]([C@@H](C)O)NC(=O)c3csc(n3)[C@H](C(C)C)NC(=O)c3csc(n3)/C(=C/C)NC(=O)[C@H]([C@@H](C)O)NC(=O)c3csc-4n3)n2)n1)C(=O)NCCn1c([N+](=O)[O-])cnc1C` showed an MIC (Staphylococcus aureus [1]) of 0.25 µg/mL (≈ 0.202 µM), an MIC (Clostridioides difficile [2]) of 0.125 µg/mL (≈ 0.101 µM) and an MIC (Enterococcus faecalis [9]) of 0.25 µg/mL (≈ 0.202 µM). It also gave an MIC (Enterococcus faecalis [10]) of 0.25 µg/mL (≈ 0.202 µM), an MIC (Enterococcus faecium) of 0.25 µg/mL (≈ 0.202 µM) and a survival at 30 mg/kg (Clostridioides difficile [11]) of 80%. For the same compound, the Activity (Clostridioides difficile [12]) was “Active”, the Activity [13] was 0.52% and the Activity [14] was 0.94%. For the same compound, the Activity [15] was 2.88%, the Activity [16] was “Non-Toxic” and the Activity [17] was “Non-Toxic”. For the same compound, the Activity [18] was “Non-Toxic”, the Activity [19] was “Non-Toxic” and the Activity [20] was “Non-Toxic”. For the same compound, the Activity [21] was “Non-Toxic”, the Activity [22] was “Non-Toxic” and the “inhibition (INH)” value [23] was “Active”. The Activity [24] was 0.15%, the Activity [25] was 1.62% and the Activity [26] was 0.93%. For the same compound, the MIC (Clostridioides difficile [27]) was 0.125 µg/mL (≈ 0.101 µM), the MIC (Clostridioides difficile [28]) was 0.125 µg/mL (≈ 0.101 µM) and the MIC (Clostridioides difficile [29]) was 0.125 µg/mL (≈ 0.101 µM). It also gave an MIC (Clostridioides difficile [30]) of 0.125 µg/mL (≈ 0.101 µM), an MIC (Clostridioides difficile [31]) of 0.125 µg/mL (≈ 0.101 µM) and an MIC (Clostridioides difficile [32]) of 0.125 µg/mL (≈ 0.101 µM). The MIC (Clostridioides difficile [33]) was 0.125 µg/mL (≈ 0.101 µM), the MIC (Clostridioides difficile [34]) was 0.125 µg/mL (≈ 0.101 µM) and the MIC (Clostridioides difficile [35]) was 0.125 µg/mL (≈ 0.101 µM). For the same compound, the MIC (Clostridioides difficile [36]) was 0.125 µg/mL (≈ 0.101 µM), the MIC (Clostridioides difficile [37]) was 0.125 µg/mL (≈ 0.101 µM) and the MIC (Clostridioides difficile [38]) was 0.125 µg/mL (≈ 0.101 µM). It also gave an MIC (Clostridioides difficile [39]) of 0.125 µg/mL (≈ 0.101 µM).
